From ChEMBL document CHEMBL1125971, “A concise synthesis of 12-(3'-hydroxy-n-propyl)-deoxoartemisinin” (Bioorg Med Chem Lett, 1991)
≈ marks a conversion by molar mass, not a printed value.

Each molecule was assayed on Plasmodium falciparum (assay: In vitro antimalarial activity against Plasmodium falciparum).
Type: functional, organism-based

Structure (SMILES) | IC50 [ng/mL]
C[C@@H]1CCC2[C@@H](C)CCO[C@@H]3O[C@]4(C)CCC1C23OO4 (some centres undefined) | 19 (≈ 67.4 nM)
C[C@@H]1CCC2[C@@H](C)[C@H](CCCO)O[C@@H]3O[C@]4(C)CCC1C23OO4 (some centres undefined) | 0.23 (≈ 0.705 nM)
C[C@@H]1CCC2[C@@H](C)C(=O)O[C@@H]3O[C@]4(C)CCC1C23OO4 (some centres undefined) | 1.21 (≈ 4.29 nM)
C[C@@H]1CCC2[C@@H](C)CO[C@@H]3O[C@]4(C)CCC1C23OO4 (some centres undefined) | 0.15 (≈ 0.559 nM)
